pIC50: −log10 of the molar value.
target: T1, human glucocorticoid receptor (GR) complex (Homo sapiens, UniProt P04150); assay: Glucocorticoid receptor competitive binding assay (fluorescence polarization); conditions: competition with TAMRA-labeled dexamethasone, read-out: potent activity (IC50) in the GR binding assay
T1 construct: made in house; host or cells: insect expression system (baculovirus lysate)
T1 sequence (P04150 1-777): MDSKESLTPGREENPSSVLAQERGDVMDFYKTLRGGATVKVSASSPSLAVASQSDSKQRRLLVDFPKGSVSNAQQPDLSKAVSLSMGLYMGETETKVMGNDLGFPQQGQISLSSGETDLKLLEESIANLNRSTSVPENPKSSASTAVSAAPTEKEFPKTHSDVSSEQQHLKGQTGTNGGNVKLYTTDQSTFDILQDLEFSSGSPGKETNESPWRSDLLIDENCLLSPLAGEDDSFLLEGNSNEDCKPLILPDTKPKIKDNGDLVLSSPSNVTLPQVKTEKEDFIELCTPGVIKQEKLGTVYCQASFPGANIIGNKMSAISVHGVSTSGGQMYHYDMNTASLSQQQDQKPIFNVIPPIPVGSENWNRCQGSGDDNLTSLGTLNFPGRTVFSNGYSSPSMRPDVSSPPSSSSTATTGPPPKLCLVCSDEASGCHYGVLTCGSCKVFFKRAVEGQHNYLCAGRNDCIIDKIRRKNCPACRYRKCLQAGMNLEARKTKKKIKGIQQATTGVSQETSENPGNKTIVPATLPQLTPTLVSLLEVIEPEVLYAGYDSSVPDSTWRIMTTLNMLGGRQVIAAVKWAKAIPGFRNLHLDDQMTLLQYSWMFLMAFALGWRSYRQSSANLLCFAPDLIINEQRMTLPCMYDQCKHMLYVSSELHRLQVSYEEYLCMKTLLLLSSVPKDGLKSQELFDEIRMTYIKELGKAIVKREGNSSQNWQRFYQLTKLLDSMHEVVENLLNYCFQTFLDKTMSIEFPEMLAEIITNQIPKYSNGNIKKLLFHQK
Description: Compounds of the invention were evaluated for binding to the steroid receptor by a fluorescence polarization competitive binding assay. Detailed descriptions for preparation of recombinant glucocorticoid receptor (GR) complex used in the assay is described in U.S. Patent Application Publication No. US 2003/0017503, filed May 20, 2002, and incorporated herein by reference in its entirety. Preparation of the tetramethylrhodamine (TAMRA)-labeled dexamethasone probe was accomplished using a standard literature procedure (M. Pons et al., J. Steroid Biochem., 1985, 22, pp. 267-273).
The affinity of the probe for the steroid receptor was then determined in a titration experiment. The fluorescence polarization value of the probe in assay buffer was measured on an SLM-8100 fluorometer using the excitation and emission maximum values described above. Aliquots of expression vector lysate were added and fluorescence polarization was measured after each addition until no further change in polarization value was observed. Non-linear least squares regression analysis was used to calculate the dissociation constant of the probe from the polarization values obtained for lysate binding to the probe.
This assay uses fluorescence polarization (FP) to quantitate the ability of test compounds to compete with tetramethylrhodamine (TAMRA)-labeled dexamethasone for binding to a human glucocorticoid receptor (GR) complex prepared from an insect expression system. The assay buffer was: 10 mM TES, 50 mM KCl, 20 mM Na2MoO4.2H2O, 1.5 mM EDTA, 0.04% w/v CHAPS, 10% v/v glycerol, 1 mM dithiothreitol, pH 7.4. Test compounds were dissolved to 1 mM in neat DMSO and then further diluted to 10× assay concentration in assay buffer supplemented with 10% v/v DMSO. Test compounds were serially diluted at 10× assay concentrations in 10% DMSO-containing buffer in 96-well polypropylene plates. Binding reaction mixtures were prepared in 96-well black Dynex microtiter plates by sequential addition of the following assay components to each well: 15 μL of 10× test compound solution, 85 μL of GR-containing baculovirus lysate diluted 1:170 in assay buffer, and 50 μL of 15 nM TAMRA-labeled dexamethasone. Positive controls were reaction mixtures containing no test compound; negative controls (blanks) were reaction mixtures containing 0.7 μM to 2 μM dexamethasone. The binding reactions were incubated for 1 hour at room temperature and then read for fluorescence polarization in the LJL Analyst set to 550 nm excitation and 580 nm emission, with the Rhodamine 561 dichroic mirror installed. IC50 values were determined by iterative non-linear curve fitting of the FP signal data to a 4-parameter logistic equation.

Compound	pIC50
COc1ccc(OC)c(SCC(NS(=O)(=O)c2c(C)cc(C)cc2C)C(F)(F)F)c1 (centres unmarked) [N-[1-(2,5-Dimethoxyphenylsulfanylmethyl)-2,2,2-trifluoroethyl]-2,4,6-trimethylbenzenesulfonamide]	≥ 7.00
Cc1cc(C)c(S(=O)(=O)NC(CSc2cc(C)ccc2C)C(F)(F)F)c(C)c1 (centres unmarked) [N-[1-(2,5-Dimethylphenylsulfanylmethyl)-2,2,2-trifluoroethyl]-2,4,6-trimethylbenzenesulfonamide]	≥ 7.00
Cc1cc(C)c(S(=O)(=O)NC(CSc2c(Cl)cccc2Cl)C(F)(F)F)c(C)c1 (centres unmarked) [N-[1-(2,6-Dichlorophenylsulfanylmethyl)-2,2,2-trifluoroethyl]-2,4,6-trimethylbenzenesulfonamide]	≥ 7.00
Cc1cc(C)c(S(=O)(=O)NC(COc2cc(F)ccc2Br)C(F)(F)F)c(C)c1 (centres unmarked) [N-[1-(2-Bromo-5-fluorophenoxymethyl)-2,2,2-trifluoroethyl]-2,4,6-trimethylbenzenesulfonamide]	≥ 7.00
Cc1cc(C)c(S(=O)(=O)NC(CSc2ccccc2Br)C(F)(F)F)c(C)c1 (centres unmarked) [N-[1-(2-Bromophenylsulfanylmethyl)-2,2,2-trifluoroethyl]-2,4,6-trimethylbenzenesulfonamide]	≥ 7.00
Cc1cc(C)c(S(=O)(=O)NC(CSc2ccc(F)cc2Cl)C(F)(F)F)c(C)c1 (centres unmarked) [N-[1-(2-Chloro-4-fluorophenylsulfanylmethyl)-2,2,2-trifluoroethyl]-2,4,6-trimethylbenzenesulfonamide]	≥ 7.00
Cc1cc(C)c(S(=O)(=O)NC(COc2ccc(C)cc2Cl)C(F)(F)F)c(C)c1 (centres unmarked) [N-[1-(2-Chloro-4-methylphenoxymethyl)-2,2,2-trifluoroethyl]-2,4,6-trimethylbenzenesulfonamide]	≥ 7.00
Cc1cc(C)c(S(=O)(=O)NC(COc2cc(C)ccc2Cl)C(F)(F)F)c(C)c1 (centres unmarked) [N-[1-(2-Chloro-5-methylphenoxymethyl)-2,2,2-trifluoroethyl]-2,4,6-trimethylbenzenesulfonamide]	≥ 7.00
Cc1cc(C)c(S(=O)(=O)NC(CSc2c(C)cccc2Cl)C(F)(F)F)c(C)c1 (centres unmarked) [N-[1-(2-Chloro-6-methylphenylsulfanylmethyl)-2,2,2-trifluoroethyl]-2,4,6-trimethylbenzenesulfonamide]	≥ 7.00
Cc1cc(C)c(S(=O)(=O)NC(CSc2ccccc2Cl)C(F)(F)F)c(C)c1 (centres unmarked) [N-[1-(2-Chlorophenylsulfanylmethyl)-2,2,2-trifluoroethyl]-2,4,6-trimethylbenzenesulfonamide]	≥ 7.00
Cc1cc(C)c(S(=O)(=O)NC(COc2ccccc2C#N)C(F)(F)F)c(C)c1 (centres unmarked) [N-[1-(2-Cyanophenoxymethyl)-2,2,2-trifluoroethyl]-2,4,6-trimethylbenzenesulfonamide]	≥ 7.00
CCc1ccccc1SCC(NS(=O)(=O)c1c(C)cc(C)cc1C)C(F)(F)F (centres unmarked) [N-[1-(2-Ethylphenylsulfanylmethyl)-2,2,2-trifluoroethyl]-2,4,6-trimethylbenzenesulfonamide]	≥ 7.00
Cc1cc(C)c(S(=O)(=O)NC(CSc2ccccc2C(C)(C)C)C(F)(F)F)c(C)c1 (centres unmarked) [N-[1-(2-tert-Butylphenylsulfanylmethyl)-2,2,2-trifluoroethyl]-2,4,6-trimethylbenzenesulfonamide]	≥ 7.00
Cc1cc(C)c(S(=O)(=O)NC(CSc2ccc(Cl)c(Cl)c2)C(F)(F)F)c(C)c1 (centres unmarked) [N-[1-(3,4-Dichlorophenylsulfanylmethyl)-2,2,2-trifluoroethyl]-2,4,6-trimethylbenzenesulfonamide]	≥ 7.00
Cc1cc(C)c(S(=O)(=O)NC(COc2cc(Cl)cc(Cl)c2)C(F)(F)F)c(C)c1 (centres unmarked) [N-[1-(3,5-Dichlorophenoxymethyl)-2,2,2-trifluoroethyl]-2,4,6-trimethylbenzenesulfonamide]	≥ 7.00

Results, then the compound that gave them:

pIC50	Compound
≥ 7.00	Cc1cc(C)cc(OCC(NS(=O)(=O)c2c(C)cc(C)cc2C)C(F)(F)F)c1 (centres unmarked) [N-[1-(3,5-Dimethylphenoxymethyl)-2,2,2-trifluoroethyl]-2,4,6-trimethylbenzenesulfonamide]
≥ 7.00	Cc1cc(C)cc(SCC(NS(=O)(=O)c2c(C)cc(C)cc2C)C(F)(F)F)c1 (centres unmarked) [N-[1-(3,5-Dimethylphenylsulfanylmethyl)-2,2,2-trifluoroethyl]-2,4,6-trimethylbenzenesulfonamide]
≥ 7.00	Cc1cc(C)c(S(=O)(=O)NC(COc2cccc(Br)c2)C(F)(F)F)c(C)c1 (centres unmarked) [N-[1-(3-Bromophenoxymethyl)-2,2,2-trifluoroethyl]-2,4,6-trimethylbenzenesulfonamide]
≥ 7.00	Cc1cc(C)c(S(=O)(=O)NC(CSc2cccc(Br)c2)C(F)(F)F)c(C)c1 (centres unmarked) [N-[1-(3-Bromophenylsulfanylmethyl)-2,2,2-trifluoroethyl]-2,4,6-trimethylbenzenesulfonamide]
≥ 7.00	Cc1cc(C)c(S(=O)(=O)NC(COc2ccc(C#N)c(Cl)c2)C(F)(F)F)c(C)c1 (centres unmarked) [N-[1-(3-Chloro-4-cyanophenoxymethyl)-2,2,2-trifluoroethyl]-2,4,6-trimethylbenzenesulfonamide]
≥ 7.00	Cc1cc(C)c(S(=O)(=O)NC(CSc2ccc(F)c(Cl)c2)C(F)(F)F)c(C)c1 (centres unmarked) [N-[1-(3-Chloro-4-fluorophenylsulfanylmethyl)-2,2,2-trifluoroethyl]-2,4,6-trimethylbenzenesulfonamide]
≥ 7.00	Cc1cc(C)c(S(=O)(=O)NC(COc2ccc(C)c(Cl)c2)C(F)(F)F)c(C)c1 (centres unmarked) [N-[1-(3-Chloro-4-methylphenoxymethyl)-2,2,2-trifluoroethyl]-2,4,6-trimethylbenzenesulfonamide]
≥ 7.00	Cc1cc(C)c(S(=O)(=O)NC(COc2cccc(Cl)c2)C(F)(F)F)c(C)c1 (centres unmarked) [N-[1-(3-Chlorophenoxymethyl)-2,2,2-trifluoroethyl]-2,4,6-trimethylbenzenesulfonamide]
≥ 7.00	Cc1cc(C)c(S(=O)(=O)NC(CSc2cccc(Cl)c2)C(F)(F)F)c(C)c1 (centres unmarked) [N-[1-(3-Chlorophenylsulfanylmethyl)-2,2,2-trifluoroethyl]-2,4,6-trimethylbenzenesulfonamide]
≥ 7.00	Cc1cc(C)c(S(=O)(=O)NC(COc2cccc(C#N)c2)C(F)(F)F)c(C)c1 (centres unmarked) [N-[1-(3-Cyanophenoxymethyl)-2,2,2-trifluoroethyl]-2,4,6-trimethylbenzenesulfonamide]
≥ 7.00	CCOc1cccc(SCC(NS(=O)(=O)c2c(C)cc(C)cc2C)C(F)(F)F)c1 (centres unmarked) [N-[1-(3-Ethoxyphenylsulfanylmethyl)-2,2,2-trifluoroethyl]-2,4,6-trimethylbenzenesulfonamide]
≥ 7.00	Cc1cc(C)c(S(=O)(=O)NC(COc2ccc(Br)cc2C)C(F)(F)F)c(C)c1 (centres unmarked) [N-[1-(4-Bromo-2-methylphenoxymethyl)-2,2,2-trifluoroethyl]-2,4,6-trimethylbenzenesulfonamide]
≥ 7.00	Cc1cc(C)c(S(=O)(=O)NC(CSc2ccc(Br)cc2OC(F)(F)F)C(F)(F)F)c(C)c1 (centres unmarked) [N-[1-(4-Bromo-2-trifluoromethoxyphenylsulfanylmethyl)-2,2,2-trifluoroethyl]-2,4,6-trimethylbenzenesulfonamide]
≥ 7.00	Cc1cc(C)c(S(=O)(=O)NC(COc2ccc(Br)cc2)C(F)(F)F)c(C)c1 (centres unmarked) [N-[1-(4-Bromophenoxymethyl)-2,2,2-trifluoroethyl]-2,4,6-trimethylbenzenesulfonamide]
